According to patent publication US10898469B2, “Imidazolylamide derivative” (Sumitomo Dainippon Pharma Co., Ltd., priority 2016, dated 2021):
Like-named read-outs stand apart in the source and are kept apart here.

Assays:
HCT-116 cells = test: Drug efficacy assay in tumor-bearing mice where HCT-116 cells were transplanted (Test Example 4); format: in vivo; conditions: HCT-116 tumor-bearing nude mouse, oral, dosage 200 mg/kg, administration period 15 days
Excerpt: The present compound can be used to evaluate the anti-tumor effect thereof according to the following assay. A 4- to 7-week-old nude mouse (BALB/cAnNCrj-nu/nu, female, CHARLES RIVER LABORATORIES JAPAN, INC.) received intradermal transplantation of human colorectal cancer-derived HCT-116 cells (ATCC) in an amount of 3×10^6 cells/mouse around the ventral portion. The engraftment of HCT-116 cells was observed 5 to 14 days after the transplantation, and then each compound suspended in a solvent such as 0.5% methylcellulose solution was orally administrated to the mouse in a dose of 1 to 200 mg/kg one to twice daily. The tumor volume was measured over time after the administration to evaluate the effect for reducing the tumor volume by the administration of each compound. The tumor volume can be calculated from the minor axis and major axis of the tumor measured with a digital caliper (Mitutoyo) according to the following equation: Tumor volume [mm^3]=[…] The tumor volume in the present-compound-administration group was compared with that of the control administration group treated with only a solvent such as 0.5% methylcellulose solution, and T/C value was calculated according the following equation to evaluate the anti-tumor effect of the present compound. […]

[1] = Pharmacokinetic assay in tumor-bearing mice where HCT-116 cells were transplanted (Test Example 3); format: in vivo; conditions: female, BALB/cAnNCrlj-nu/nu, plasma, tumor-bearing nude mouse; for concentration at 1 h: read-out: Plasma concentrations after oral administration, 1 hour; for concentration at 2 h: read-out: Plasma concentrations after oral administration, 2 hours; for concentration at 6 h: read-out: Plasma concentrations after oral administration, 6 hours; for concentration at 24 h: read-out: Plasma concentrations after oral administration, 24 hours
Experimental: A 7- to 12-week-old nude mouse (BALB/cAnNCrlj-nu/nu, female, CHARLES RIVER LABORATORIES JAPAN, INC.) received intradermal transplantation of human colorectal cancer-derived HCT-116 cells (ATCC) in an amount of 3×10^6 cells/mouse around the ventral part. […] Blood was collected 1, 2, 6, and 24 hours after administration, and centrifuged to afford plasma samples. Methanol was added to the plasma samples so as to be adjusted to 80% of the final concentration. The samples were centrifuged and filtered to be deproteinized. Then, the test compound was detected and quantitated with LC-MS/MS (API4000, AB SCIEX). In quantitation, a calibration curve was prepared with mouse plasma comprising a known amount of the compound and Bezafibrate was used for the internal standard.
The test in Test Example 3 was performed for the compounds of Examples.
The following table and FIGS. 1 to 5 show temporal changes of the plasma concentrations of compounds after oral administration.

[2] = Solid state thermal stability; format: physicochemical; conditions: 70° C., vessel left open; for solid state thermal stability (change of form): stored for 12 weeks
Experimental: The solid state thermal stability was measured for the compounds of Examples 237 and 238 according to the following method. The compounds of Examples 237 and 238 were put into an isothermal vessel set at 70° C., and the samples were stored for 12 weeks under the condition that the vessel was left open. Each elemental analysis result for each compound after 12 weeks is shown as follows.

[3] = oral single dose 100 mg/kg, 20% Labrasol
[4] = oral single dose 60 mg/kg, 0.5% methylcellulose

Question: Which T/C (HCT-116 cells) does the source give for `CC(=O)Nc1ccc(/C=C/C(=O)Nc2cn(Cc3cccc(C(F)(F)F)c3)cn2)cc1.Cl` [Example 122, (E)-N-(1-(3-trifluoromethyl-benzyl)-1H-imidazol-4-yl)-3-(4-(acetylamino)phenyl)acrylamide] here?
Answer: 51%

Question: And the concentration at 1 h [1, 3]?
Answer: 160 ng/mL

Question: What about the concentration at 2 h [1, 3] of the same molecule?
Answer: 642 ng/mL

Question: What about the concentration at 6 h [1, 3] of the same molecule?
Answer: 467 ng/mL

Question: And the concentration at 24 h [1, 3]?
Answer: 221 ng/mL

Question: Which concentration at 1 h [1, 3] does the source give for `CC(=O)Nc1ccc(/C=C/C(=O)Nc2cn(Cc3cccc(OC(F)(F)F)c3)cn2)cc1` [Example 123] here?
Answer: 287 ng/mL

Question: And the concentration at 2 h [1, 3]?
Answer: 837 ng/mL

Question: What about the concentration at 6 h [1, 3] of the same molecule?
Answer: 79 ng/mL

Question: And the concentration at 24 h [1, 3]?
Answer: 62 ng/mL

Question: For `COc1ccc(/C=C/C(=O)Nc2cn(Cc3cccc(C(F)(F)F)c3)cn2)cc1OCCO` [Example 128], which concentration at 1 h [1, 3] is on record?
Answer: 4700 ng/mL

Question: What about the concentration at 2 h [1, 3] of the same molecule?
Answer: 610 ng/mL

Question: What about the concentration at 6 h [1, 3] of the same molecule?
Answer: 644 ng/mL

Question: And the concentration at 24 h [1, 3]?
Answer: 13 ng/mL

Question: Which concentration at 1 h [1, 3] does the source give for `N#Cc1ccc(/C=C/C(=O)Nc2cn(Cc3cccc(Cl)c3)cn2)cc1OCCO` [Example 129] here?
Answer: 465 ng/mL

Question: What about the concentration at 2 h [1, 3] of the same molecule?
Answer: 309 ng/mL

Question: And the concentration at 6 h [1, 3]?
Answer: 271 ng/mL

Question: What does the source list for `COc1ccc(C(=O)Nc2cn(Cc3cc(F)c(F)c(F)c3)cn2)cc1OC.Cl` [Example 237, 3,4-dimethoxy-N-[1-(3,4,5-trifluorobenzyl)-1H-imidazol-4-yl]benzamide]?
Answer: Elemental analysis C (%) measured value after 12 weeks ([2]; 12 weeks): 54.71%; Elemental analysis Cl (%) measured value after 12 weeks ([2]; 12 weeks): 4.00%; Elemental analysis F (%) measured value after 12 weeks ([2]; 12 weeks): 13.74%; Elemental analysis H (%) measured value after 12 weeks ([2]; 12 weeks): 4.31%; Elemental analysis N (%) measured value after 12 weeks ([2]; 12 weeks): 10.28%; solid state thermal stability (change of form) [2]: changed to 0.5 hydrochloride 0.5 hydrate; concentration at 1 h [1, 4]: 13200 ng/mL; concentration at 2 h [1, 4]: 9760 ng/mL; concentration at 6 h [1, 4]: 3390 ng/mL; concentration at 24 h [1, 4]: 4 ng/mL

Question: Which “Elemental analysis C (%) measured value after 12 weeks” value ([2]; 12 weeks) does the source give for `COc1ccc(C(=O)Nc2cn(Cc3cc(F)c(F)c(F)c3)cn2)cc1OC` [Example 238, 3,4-Dimethoxy-N-[1-(3,4,5-trifluorobenzyl)-1H-imidazol-4-yl]benzamide tosilate] here?
Answer: 55.51%

Question: And the “Elemental analysis F (%) measured value after 12 weeks” value ([2]; 12 weeks)?
Answer: 10.15%

Question: What about the “Elemental analysis H (%) measured value after 12 weeks” value ([2]; 12 weeks) of the same molecule?
Answer: 4.33%

Question: What about the “Elemental analysis N (%) measured value after 12 weeks” value ([2]; 12 weeks) of the same molecule?
Answer: 7.48%

Question: What about the “Elemental analysis S (%) measured value after 12 weeks” value ([2]; 12 weeks) of the same molecule?
Answer: 5.62%

Question: And the “solid state thermal stability (change of form)” value [2]?
Answer: not changed
